Experimental data reported in patent publication US12382955B2, “Peroxyformic acid compositions for membrane filtration cleaning in energy services” (priority 2016, dated 2025).

Legend:
oil and gas biofilm = assay: Biofilm percent reductions (Example 5)
[1] = Membrane compatibility, simulated exposure soak, clean water flux and salt rejection (Example 4); conditions: Koch HRX, PFA 300 ppm, 77 F
Method: The effects of PFA on reverse osmosis members which contain a polyamide structure in comparison with known control chemicals were tested. Three different membranes were tested including Koch HRX, Hydranautics CPA5 and Hydranautics ESPA2+. Membranes were soaked in duplicate, in chemistries according to Table 4.
Membranes were then conditioned in Ultrasil 110 at a pH of 11 for 90 minutes at 50° C., followed by a rinse in DI water.
Each of the chemistries, with the exception of PFA was refreshed daily. PFA was refreshed hourly. After the simulated exposure the membranes are rinsed with DI water and placed on the Flat Sheet Membrane skid (Model M20). The membranes were rinsed with DI water for 24 hours at standard UF pressure and temperature. Once 24 hours was completed the membranes were subjected to alkaline conditioning step until solution pH is 11. 15.14 grams of NaCl was added to the recirculating water (2000 ppm NaCl) and the system was allowed to continue circulating. The conductivity of each permeate tube and feed was then measured and recorded and shown as percent rejection. The percent rejection was determined by (conductivity of the feed−conductivity of the permeate)/(conductivity of the feed).

Structure (SMILES) | Biofilm percent reductions, ATP (oil and gas biofilm; 250 ppm) [%] | Biofilm percent reductions, Total biofilm (oil and gas biofilm; 250 ppm) [%] | inhibition at 250 ppm (oil and gas biofilm; read-out: Biofilm percent reductions, Viable biofilm) [%] | Biofilm percent reductions, ATP (oil and gas biofilm; 75 ppm active) [%] | Biofilm percent reductions, Total biofilm (oil and gas biofilm; 75 ppm active) [%] | Biofilm percent reductions, Viable biofilm (oil and gas biofilm; 75 ppm active) [%] | Water Flux (LMH) PFA 1 YR ([1]; simulated 1 year, 78 hr soak) [LMH] | Water Flux (LMH) PFA 3 YR ([1]; simulated 3 years, 234 hr soak) [LMH]
O=CCCCC=O [Glutaraldehyde, reference compound] | 94 | 58 | 81 | – | – | – | – | –
O=COO [PFA, peroxyformic acid] | – | – | – | 99 | 85 | 96 | 65.40 | 75.84
